Experimental data from patent US9447119B2, “Chemical compound for inhibiting the growth and proliferation of human liver cancer cells HepG2 and method for synthesizing it” (priority 2015, dated 2016).
Values after ≈ are worked out from the molar mass of the structure shown.

What was measured:
[1] = system: HepG2 (Hepatocellular carcinoma cells); test: Cytotoxicity evaluation using viability assay (crystal violet) against HepG2 cell line; format: cell-based, human; conditions: for Viability %: 48 hours; for IC50: Homo sapiens, HepG2 cells, 48 hours incubation, crystal violet viability, read-out: inhibition concentration value (IC50) against HepG2
Text: HepG2 cells (human cell line of a well differentiated hepatocellular carcinoma isolated from a liver biopsy of a person) were obtained from the American Type Culture Collection (ATCC). The chemicals used were: Dimethyl sulfoxide (DMSO), crystal violet and trypan blue dye, purchased from Sigma, St. Louis, Mo., USA; DMEM, RPMI-1640, FBS, HEPES buffer solution, L-glutamine, gentamycin and 0.25% Trypsin-EDTA, purchased from BioWhittaker®, Lonza, Belgium; and Crystal violet stain (1%), composed of 0.5% (w/v) crystal violet and 50% methanol, made up to volume with ddH20 and filtered through a Whatmann No. I filter paper.
In the cytotoxicity assay, the cells were propagated in Dulbecco's modified Eagle's medium (DMEM) supplemented with 10% heat-inactivated fetal bovine serum, 1% L-glutamine, HEPES buffer and 50 μg/ml gentamycin. All cells were maintained at 37° C. in a humidified atmosphere with 5% C02 and were subcultured two times a week.
Cell toxicity was monitored by determining the effect of the test samples on cell morphology and cell viability.
For cytotoxicity assay, the cells were seeded in a 96-well plate at a cell concentration of 1×10^4 cells per well in 100 μl of growth medium. Fresh medium containing different concentrations of the test sample was added after 24 hours following seeding. Serial two-fold dilutions of the tested chemical compound were added to confluent cell monolayers dispensed into 96-well, flat-bottomed microtiter plates (Falcon, N.J., USA) using a multichannel pipette. The microtiter plates were incubated at 37° C. in a humidified incubator with 5% C02 for a period of 48 hours. Three wells were used for each concentration of the test sample. Control cells were incubated without test sample and with or without DMSO. The little percentage of DMSO present in the wells (maximal 0.1%) was found not to affect the experiment. After incubation of the cells for 24 hours at 37° C., various concentrations of sample (50, 25, 12.5, 6.25, 3.125 & 1.56 μg) were added, and the incubation was continued for 48 hours and viable cells yield was determined by a colorimetric method.
In brief, after the end of the incubation period, media were aspirated and the crystal violet solution (1%) was added to each well for at least 30 minutes. The stain was removed and the plates were rinsed using tap water until all excess stain was removed. Glacial acetic acid (30%) was then added to all wells and mixed thoroughly and then the absorbance of the plates was measured after being gently shaken on a Microplate reader (TECAN, Inc.), using a test wavelength of 490 nm. All results were corrected for background absorbance detected in wells without added stain. Treated samples were compared with the cell control in the absence of the tested compounds. All experiments were carried out in triplicate.
The cell cytotoxic effect of each tested compound was calculated according to the rapid colorimetric assay for cellular growth and survival: application to proliferation and cytotoxicity assay, published by T. Mosmann in the Journal of Immunology Methods, 1983, 65:55-63; and the antiviral activity of medicinal plants of Nilgriris, published by P. Vijayan et al. in the Indian Journal of Medical Research, 2004, 120: 24-29.

[2] = system: HepG2 (Hepatocellular carcinoma cells); test: as above; format: cell-based, human; conditions: 48 hours

Compound | Viability % ([1]; HepG2, sample conc. 1.56 μg) [%] | Viability % ([1]; HepG2, sample conc. 3.125 μg) [%] | Viability % ([1]; HepG2, sample conc. 6.25 μg) [%] | Viability % ([1]; HepG2, sample conc. 12.5 μg) [%] | Viability % ([1]; HepG2, sample conc. 25 μg) [%] | Viability % ([1]; HepG2, sample conc. 50 μg) [%] | IC50 [1] [µg/mL] | Viability % ([2]; HepG2, sample conc. 0.78 μg) [%] | melting point [°C] | Viability % ([2]; HepG2, sample conc. 0.39 μg) [%]
COc1cccc2c1C(=O)c1c(O)c3c(c(O)c1C2=O)C[C@@](O)(C(=O)CO)C[C@@H]3O[C@H]1C[C@H](N)[C@H](O)[C@H](C)O1 [Doxorubicin, reference compound] | 48.25 | 30.32 | 21.03 | 16.90 | 14.29 | 10.95 | 1.2 (≈ 2.21 µM) | 57.44 | – | –
O=c1c2c3c(sc2nc2sc(Nc4ccc([N+](=O)[O-])cc4)nn12)CCCCC3 [compound of the invention, 2-((4-Nitrophenyl)amino)-7,8,9,10-tetrahydrocyclohepta[4,5]thieno[2,3-d][1,3,4]thiadiazolo[3,2-a]pyrimidin-11(6H)-one] | 32.86 | 23.17 | 13.92 | 10.04 | 7.52 | 3.79 | 0.7 (≈ 1.69 µM) | 45.74 | > 300 | 64.21
